Test results published in PMC9610943, “Truncated Pleurocidin Derivative with High Pepsin Hydrolysis Resistance to Combat Multidrug-Resistant Pathogens” (Pharmaceutics, 2022).
Where two headings read alike, the source gives them in different places. Where no end group is shown, it is not given here.

Key:
MRSA 1530 = assay: microbe, parasite or virus in culture; assay type: cell-based, Staphylococcus aureus
Experimental: (§1) S. aureus ATCC 29213, E. coli ATCC 25922, S. enteritidis ATCC 13076 and A. baumannii ATCC 19609 were obtained from the American Type Culture Collection (ATCC). The remaining strains used in the experiment were all preserved strains in our laboratory. All strains were cultured in nutrient broth overnight to the logarithmic phase at 37 °C prior to each experiment.
(§2) The MICs of all drugs were determined by micro-broth dilution method according to CLSI 2018 guidelines. Briefly, a single colony of the bacterial strain was transferred to 1 mL of Mueller Hilton broth (MHB) and overnight at 37 °C and then 10 μL were cultured in a new 1 mL medium for 4 to 6 h, and then the bacterial culture at the logarithmic phase was diluted to 1 × 10^6 CFUs/mL. The assay was performed by adding 100 μL of each peptide solution at various concentrations (0.25 to 128 μg/mL) and 100 μL of diluted bacterial culture to different wells of a 96-well microtiter plate (Corning, NY, USA). After incubation at 37 °C for 16 to 18 h and then read its MIC value. MIC value is defined as the lowest drug concentration without visible bacteria.

MRSA T144 [1] = assay: microbe, parasite or virus in culture; assay type: cell-based, Staphylococcus aureus
Experimental: as §1, §2

A. baumannii ATCC 19609 = assay: microbe, parasite or virus in culture; assay type: cell-based
Experimental: as §1, §2

E. coli 1F28 (tet(X4)) = assay: microbe, parasite or virus in culture; assay type: cell-based
Experimental: as §1, §2

E. coli ATCC 25922 = assay: microbe, parasite or virus in culture; assay type: cell-based
Experimental: as §1, §2

[2] = test system: E. coli B2 (blaNDM-5 + mcr-1); assay: microbe, parasite or virus in culture; assay type: cell-based
Experimental: as §1, §2

E. coli B3-1 (tet(X4)) = assay: microbe, parasite or virus in culture; assay type: cell-based
Experimental: as §1, §2

E. coli C3 (blaNDM-1) = assay: microbe, parasite or virus in culture; assay type: cell-based
Experimental: as §1, §2

E. coli CP131 (mcr-3) = assay: microbe, parasite or virus in culture; assay type: cell-based
Experimental: as §1, §2

E. coli G6 (blaNDM-5) = assay: microbe, parasite or virus in culture; assay type: cell-based
Experimental: as §1, §2

E. coli G92 (mcr-1) = assay: microbe, parasite or virus in culture; assay type: cell-based
Experimental: as §1, §2

[3] = test system: E. faecalis A4 (VRE, VanA); assay: microbe, parasite or virus in culture; assay type: cell-based
Experimental: as §1, §2

[4] = test system: P. aeruginosa (VIM + tmexCD1-torJ1); assay: microbe, parasite or virus in culture; assay type: cell-based
Experimental: as §1, §2

P. aeruginosa PA14 = assay: microbe, parasite or virus in culture; assay type: cell-based
Experimental: as §1, §2

[5] = test system: S. aureus 215 (cfr + LZD^R); assay: microbe, parasite or virus in culture; assay type: cell-based; details: S. aureus 215 (cfr + LZD^R); micro-broth dilution CLSI 2018, MHB, 37 °C, 16 to 18 h
Experimental: as §1, §2

S. aureus ATCC 29213 = assay: microbe, parasite or virus in culture; assay type: cell-based
Experimental: as §1, §2

S. aureus G16 (RIF^R) = assay: microbe, parasite or virus in culture; assay type: cell-based; details: S. aureus G16 (RIF^R); micro-broth dilution CLSI 2018, MHB, 37 °C, 16 to 18 h
Experimental: as §1, §2

[6] = test system: S. enteritidis ATCC 13076; assay: microbe, parasite or virus in culture; assay type: cell-based
Experimental: as §1, §2

[7] = test system: P. cibarius HNCF44W (blaNDM-1+ tet(X6)); assay: organism not typed; assay type: cell-based
Experimental: as §1, §2

MRSA T144 [8] = assay type: cell-based, Staphylococcus aureus
Experimental: as §2
(§3) Then, the antibacterial activity of the peptides affected by different temperatures and pH were determined according to the determination steps of MICs test.
(§4) In MHB medium, Na^+, K^+, Mg^2+ and Ca^2+ with the final concentrations of 10 mM, fetal bovine serum, plasma or DMEM medium (Hyclone, Logan, UT, USA) with the final concentrations of 10% was added, and then MIC values were measured to evaluate the effects of different cations, serum and plasma on the antibacterial activity of peptides.
(§5) The peptide was incubated with protease (pepsin, trypsin and papain) (Solarbio, Beijing, China) with a final concentration of 1 mg/mL at 37 °C for 1 h, then the mixture of peptide and protease was heated at 100 °C for 30 min, then centrifuged at 13,000× g for 30 min, and the supernatant was taken for MIC determination.

E. coli B2 = assay type: cell-based
Experimental: as §2, §3, §4, §5

## GWGSFFKKAAHVGK [GK-1]
MRSA 1530; MRSA 1530, micro-broth dilution CLSI 2018, MHB, 37 °C, 16 to 18 h
  MIC: >128 µg/mL
MRSA T144 [1]; MRSA T144, micro-broth dilution CLSI 2018, MHB, 37 °C, 16 to 18 h
  MIC: >128 µg/mL
A. baumannii ATCC 19609; A. baumannii ATCC 19609, micro-broth dilution CLSI 2018, MHB, 37 °C, 16 to 18 h
  MIC: >128 µg/mL
E. coli 1F28 (tet(X4)); E. coli 1F28 (tet(X4)), micro-broth dilution CLSI 2018, MHB, 37 °C, 16 to 18 h
  MIC: >128 µg/mL
E. coli ATCC 25922; E. coli ATCC 25922, micro-broth dilution CLSI 2018, MHB, 37 °C, 16 to 18 h
  MIC: >128 µg/mL
[2]; E. coli B2 (blaNDM-5 + mcr-1), micro-broth dilution CLSI 2018, MHB, 37 °C, 16 to 18 h
  MIC: >128 µg/mL
E. coli B3-1 (tet(X4)); E. coli B3-1 (tet(X4)), micro-broth dilution CLSI 2018, MHB, 37 °C, 16 to 18 h
  MIC: >128 µg/mL
E. coli C3 (blaNDM-1); E. coli C3 (blaNDM-1), micro-broth dilution CLSI 2018, MHB, 37 °C, 16 to 18 h
  MIC: >128 µg/mL
E. coli CP131 (mcr-3); E. coli CP131 (mcr-3), micro-broth dilution CLSI 2018, MHB, 37 °C, 16 to 18 h
  MIC: >128 µg/mL
E. coli G6 (blaNDM-5); E. coli G6 (blaNDM-5), micro-broth dilution CLSI 2018, MHB, 37 °C, 16 to 18 h
  MIC: >128 µg/mL
E. coli G92 (mcr-1); E. coli G92 (mcr-1), micro-broth dilution CLSI 2018, MHB, 37 °C, 16 to 18 h
  MIC: >128 µg/mL
[3]; E. faecalis A4 (VRE, VanA), micro-broth dilution CLSI 2018, MHB, 37 °C, 16 to 18 h
  MIC: >128 µg/mL
[4]; P. aeruginosa (VIM + tmexCD1-torJ1), micro-broth dilution CLSI 2018, MHB, 37 °C, 16 to 18 h
  MIC: >128 µg/mL
P. aeruginosa PA14; P. aeruginosa PA14, micro-broth dilution CLSI 2018, MHB, 37 °C, 16 to 18 h
  MIC: >128 µg/mL
[5]
  MIC: >128 µg/mL
S. aureus ATCC 29213; S. aureus ATCC 29213, micro-broth dilution CLSI 2018, MHB, 37 °C, 16 to 18 h
  MIC: >128 µg/mL
S. aureus G16 (RIF^R)
  MIC: >128 µg/mL
[6]; S. enteritidis ATCC 13076, micro-broth dilution CLSI 2018, MHB, 37 °C, 16 to 18 h
  MIC: >128 µg/mL
[7]; P. cibarius HNCF44W (blaNDM-1+ tet(X6)), micro-broth dilution CLSI 2018, MHB, 37 °C, 16 to 18 h
  MIC: >128 µg/mL

## GWGSFFKKAAHVGKHVGKAALTHYL [Pleu, Pleurocidin]
MRSA 1530; 1530
  MIC: 8 µg/mL
MRSA T144 [1]; T144
  MIC: 2 µg/mL
A. baumannii ATCC 19609; ATCC 19609
  MIC: 2 µg/mL
E. coli 1F28 (tet(X4)); 1F28 (tet(X4))
  MIC: 4 µg/mL
E. coli ATCC 25922; ATCC 25922
  MIC: 1 µg/mL
[2]; B2 (blaNDM-5 + mcr-1)
  MIC: 2 µg/mL
E. coli B3-1 (tet(X4)); B3-1 (tet(X4))
  MIC: 1 µg/mL
E. coli C3 (blaNDM-1); C3 (blaNDM-1)
  MIC: 1 µg/mL
E. coli CP131 (mcr-3); CP131 (mcr-3)
  MIC: 1 µg/mL
E. coli G6 (blaNDM-5); G6 (blaNDM-5)
  MIC: 1 µg/mL
E. coli G92 (mcr-1); G92 (mcr-1)
  MIC: 1 µg/mL
[3]; A4 (VRE, VanA)
  MIC: 8 µg/mL
[4]; VIM + tmexCD1-torJ1
  MIC: 4 µg/mL
P. aeruginosa PA14; PA14
  MIC: 1 µg/mL
[5]
  MIC: 2 µg/mL
S. aureus ATCC 29213; ATCC 29213
  MIC: 4 µg/mL
S. aureus G16 (RIF^R)
  MIC: 2 µg/mL
[6]; ATCC 13076
  MIC: 1 µg/mL
[7]
  MIC: 2 µg/mL
MRSA T144 [8]; T144
  MIC after treatment at 121 °C: 8 µg/mL
  MIC in DMEM (10%): 2 µg/mL
  MIC in Plasma (10%): 2 µg/mL
  MIC in Serum (10%): 4 µg/mL
  MIC in presence of Ca^2+: >128 µg/mL
  MIC in presence of K^+: 2 µg/mL
  MIC in presence of Mg^2+: 8 µg/mL
  MIC in presence of Na^+: 2 µg/mL
  MIC, Control: 2 µg/mL
MRSA T144 [8]; T144, 1 h
  MIC after Papain treatment: >128 µg/mL
  MIC after Pepsin treatment: 64 µg/mL
  MIC after Trypsin treatment: >128 µg/mL
  MIC after treatment at 40 °C: 2 µg/mL
  MIC after treatment at 60 °C: 1 µg/mL
  MIC after treatment at 80 °C: 2 µg/mL
  MIC after treatment at 100 °C: 4 µg/mL
MRSA T144 [8]; T144, 1 h, pH 2
  MIC after treatment at pH 2: 4 µg/mL
MRSA T144 [8]; T144, 1 h, pH 4
  MIC after treatment at pH 4: 4 µg/mL
MRSA T144 [8]; T144, 1 h, pH 6
  MIC after treatment at pH 6: 2 µg/mL
MRSA T144 [8]; T144, 1 h, pH 8
  MIC after treatment at pH 8: 4 µg/mL
MRSA T144 [8]; T144, 1 h, pH 10
  MIC after treatment at pH 10: 4 µg/mL
MRSA T144 [8]; T144, 1 h, pH 12
  MIC after treatment at pH 12: 4 µg/mL
E. coli B2; B2
  MIC after treatment at 121 °C: 2 µg/mL
  MIC in DMEM (10%): 4 µg/mL
  MIC in Plasma (10%): <0.25 µg/mL
  MIC in Serum (10%): 1 µg/mL
  MIC in presence of Ca^2+: >128 µg/mL
  MIC in presence of K^+: 1 µg/mL
  MIC in presence of Mg^2+: 128 µg/mL
  MIC in presence of Na^+: 1 µg/mL
  MIC, Control: 2 µg/mL
E. coli B2; B2, 1 h
  MIC after Papain treatment: >128 µg/mL
  MIC after Pepsin treatment: 128 µg/mL
  MIC after Trypsin treatment: >128 µg/mL
  MIC after treatment at 40 °C: 1 µg/mL
  MIC after treatment at 60 °C: 1 µg/mL
  MIC after treatment at 80 °C: 1 µg/mL
  MIC after treatment at 100 °C: 2 µg/mL
E. coli B2; B2, 1 h, pH 2
  MIC after treatment at pH 2: 1 µg/mL
E. coli B2; B2, 1 h, pH 4
  MIC after treatment at pH 4: 1 µg/mL
E. coli B2; B2, 1 h, pH 6
  MIC after treatment at pH 6: 1 µg/mL
E. coli B2; B2, 1 h, pH 8
  MIC after treatment at pH 8: 1 µg/mL
E. coli B2; B2, 1 h, pH 10
  MIC after treatment at pH 10: 1 µg/mL
E. coli B2; B2, 1 h, pH 12
  MIC after treatment at pH 12: 1 µg/mL
